Among the test systems are OVCAR-8 ovarian; A498 renal; SK-OV-3 ovarian; HOP-62 NSCLC; M14 melanoma; K-562 leukemia; SF-268 CNS; RPMI-8226 leukemia.
Assay in all cases: growth of human tumour cells (NCI), 48 h

The source of these data is PubChem BioAssay (NCI).

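Briefly, cells in 96-well plates were exposed to five compound concentrations for 48 h, and endpoints were estimated by linear interpolation. GI50 marks 50% less growth. TGI: concentration producing complete growth inhibition.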

For the compound `CCCCCCCCC(=O)CCCCCCCCC(=O)O`, the TGI is 32.4 µM in the assay with OVCAR-8 ovarian; 47.8 µM with A498 renal; above 100 µM with SK-OV-3 ovarian; 66.6 µM with HOP-62 NSCLC; 82.8 µM with M14 melanoma; 46.6 µM with K-562 leukemia. For the same compound, the TGI is above 100 µM in the assay on SF-268 CNS and 51.2 µM with RPMI-8226 leukemia.

Take `CC12Oc3ccc4ccccc4c3C1c1c(ccc3ccccc13)O2` (stereo not drawn): the TGI with OVCAR-8 ovarian, in the assay with SK-OV-3 ovarian, in the assay with M14 melanoma, with K-562 leukemia and in the assay with SF-268 CNS was above 100 µM throughout.

In the case of `CCC1(O)C(=O)OCc2c1cc1n(c2=O)Cc2c-1nc1ccccc1c2OC` (stereo not drawn), the TGI was above 100 µM with OVCAR-8 ovarian; 0.319 µM in the assay with A498 renal; 7.47 µM in the assay with SK-OV-3 ovarian; below 0.01 µM in the assay on HOP-62 NSCLC; 0.445 µM with M14 melanoma; above 100 µM in the assay on K-562 leukemia. In addition, the TGI with SF-268 CNS is 2.31 µM; with RPMI-8226 leukemia, 0.511 µM.

On to `Cc1ccc(NC(=O)C2C(=O)C(=O)N(c3ccc(C)cc3)C2=O)cc1` (stereo not drawn), for which the TGI in the assay with OVCAR-8 ovarian, in the assay with A498 renal, in the assay with HOP-62 NSCLC, with M14 melanoma, in the assay on K-562 leukemia and in the assay with SF-268 CNS was above 100 µM throughout.

With `CCC[CH2][Sn]([CH2]CCC)([O]C(=O)c1cc(OC)c(OC)c(OC)c1)[O]C(=O)c1cc(OC)c(OC)c(OC)c1`, the GI50 is 1.5 µM in the assay with OVCAR-8 ovarian; 1.17 µM in the assay on A498 renal; 1.69 µM in the assay on SK-OV-3 ovarian; 2.01 µM with HOP-62 NSCLC; 1.42 µM in the assay with M14 melanoma; 0.29 µM in the assay on K-562 leukemia. The GI50 in the assay on SF-268 CNS is 1.21 µM; in the assay on RPMI-8226 leukemia it was 0.445 µM. Besides, the TGI in the assay on OVCAR-8 ovarian turned out to be 3.37 µM; in the assay on A498 renal it was 3.02 µM; with SK-OV-3 ovarian, 3.25 µM; with HOP-62 NSCLC, 3.45 µM; with M14 melanoma, 2.83 µM; in the assay with K-562 leukemia it was 1.99 µM. For the same compound, the TGI worked out at 2.48 µM in the assay with SF-268 CNS and 4.5 µM with RPMI-8226 leukemia.

Regarding `[Ce+3].[Cl-].[O-]/N=C(\c1ccccc1)c1ccccn1.[O-]/N=C(\c1ccccc1)c1ccccn1.[O-]/N=C(\c1ccccc1)c1ccccn1`, the GI50 with OVCAR-8 ovarian was 37.9 µM; in the assay with A498 renal, 54 µM; in the assay with SK-OV-3 ovarian it was 37.2 µM; with HOP-62 NSCLC, 30.3 µM; in the assay with M14 melanoma it was 35.7 µM; in the assay on K-562 leukemia, 36.3 µM. The figures for the GI50 in the assay on SF-268 CNS and in the assay with RPMI-8226 leukemia were 44.4 µM and 59.7 µM, respectively. In addition, the TGI in the assay on OVCAR-8 ovarian, with A498 renal, in the assay on SK-OV-3 ovarian, in the assay on HOP-62 NSCLC, in the assay on M14 melanoma and in the assay on K-562 leukemia was above 100 µM throughout. The TGI in the assay with SF-268 CNS and in the assay with RPMI-8226 leukemia was above 100 µM each time.

Turning to `Cn1c(O)c(C=N)c(=O)n(C)c1=O`, the TGI in the assay on OVCAR-8 ovarian, in the assay with M14 melanoma, with K-562 leukemia, in the assay on SF-268 CNS and in the assay on RPMI-8226 leukemia was above 100 µM each time.

In the case of `CC1C(=O)CCC1C(Sc1ccccc1)(Sc1ccccc1)Sc1ccccc1` (stereo not drawn), the TGI in the assay with OVCAR-8 ovarian was above 100 µM; with A498 renal it was above 100 µM; with SK-OV-3 ovarian, above 100 µM; with HOP-62 NSCLC it was above 100 µM; in the assay on M14 melanoma, above 100 µM; in the assay on K-562 leukemia it was 80.5 µM. For the same compound, the figures for the TGI with SF-268 CNS and in the assay on RPMI-8226 leukemia were 46.3 µM and 40.6 µM, respectively.

For `COC(=O)C(=C\Sc1ccccc1)/C=C/C(=O)OC(C)(C)C`, the TGI in the assay with OVCAR-8 ovarian came to 31.2 µM; with SK-OV-3 ovarian it was 43.9 µM; with HOP-62 NSCLC, 34.8 µM; in the assay with M14 melanoma it was 21.2 µM; in the assay with K-562 leukemia it was 15.8 µM; in the assay on SF-268 CNS it was 31.8 µM. Further, in the assay on RPMI-8226 leukemia, the TGI was 8.48 µM.

Consider `COC(=O)C(C(=O)C(=O)Nc1c(Cl)cc([N+](=O)[O-])cc1Cl)c1nc2cc(C)c(C)cc2[nH]c1=O` (stereo not drawn), for which the TGI in the assay on OVCAR-8 ovarian, with A498 renal, in the assay on SK-OV-3 ovarian, in the assay on HOP-62 NSCLC, with M14 melanoma and in the assay with K-562 leukemia was above 100 µM in each case. Moreover, the TGI in the assay on SF-268 CNS and in the assay with RPMI-8226 leukemia was above 100 µM throughout.

Regarding `Cc1cc(=O)[nH]c(CNC(=O)c2cccc3ccccc23)n1`, the TGI in the assay with OVCAR-8 ovarian, with A498 renal, in the assay on SK-OV-3 ovarian, in the assay on HOP-62 NSCLC, with M14 melanoma and in the assay on K-562 leukemia was above 100 µM in each case. Further, the TGI with SF-268 CNS was above 100 µM.

For `CC(=O)c1cc2c3c(c1)c1cc4c(cc1c(=O)n3CC2)OCO4`, the TGI in the assay on OVCAR-8 ovarian, with SK-OV-3 ovarian, in the assay on HOP-62 NSCLC, with M14 melanoma, with K-562 leukemia and in the assay on RPMI-8226 leukemia was above 100 µM in each case.

Regarding `O=S1(=O)COc2ccccc2-c2ncncc21`, the TGI in the assay with OVCAR-8 ovarian, with A498 renal, in the assay on SK-OV-3 ovarian, with HOP-62 NSCLC, with M14 melanoma and with K-562 leukemia was above 100 µM each time. The TGI in the assay on SF-268 CNS and in the assay on RPMI-8226 leukemia was above 100 µM in each case.

Regarding `CCOC(=O)NC(=O)c1cn(CCCCCCCCCCC(=O)N2CCN(CCn3cc(C(=O)NC(=O)OCC)c(=O)[nH]c3=O)CC2)c(=O)[nH]c1=O`, the TGI with OVCAR-8 ovarian, in the assay on A498 renal, in the assay on SK-OV-3 ovarian, in the assay with HOP-62 NSCLC, with M14 melanoma and in the assay with K-562 leukemia was above 100 µM in each case. This compound registered a TGI in the assay with RPMI-8226 leukemia above 100 µM.

In the case of `CCOC(=O)/C(=C/c1cc(OC)ccc1OC)CC(=O)O`, the TGI with OVCAR-8 ovarian was above 100 µM; in the assay on A498 renal, above 100 µM; in the assay on SK-OV-3 ovarian it was above 100 µM; in the assay on M14 melanoma, above 100 µM; in the assay on K-562 leukemia, above 31.6 µM; with SF-268 CNS, above 100 µM. The same compound gave a TGI in the assay on RPMI-8226 leukemia above 31.6 µM.

Regarding `OCC1OC(n2ccc3cnccc32)CC1O` (stereo not drawn), the TGI with OVCAR-8 ovarian, in the assay with A498 renal, with SK-OV-3 ovarian, in the assay with HOP-62 NSCLC, with M14 melanoma and in the assay on K-562 leukemia was above 100 µM each time. Also, the TGI in the assay with RPMI-8226 leukemia was above 100 µM.

Consider `COc1ccc(C2Cc3cc(OC)c(OC)c(OC)c3C2=O)cc1` (stereo not drawn), for which the TGI in the assay on OVCAR-8 ovarian, in the assay on A498 renal, in the assay with SK-OV-3 ovarian, in the assay with HOP-62 NSCLC, in the assay with M14 melanoma and in the assay with K-562 leukemia was above 100 µM throughout. Moreover, the TGI with SF-268 CNS and in the assay on RPMI-8226 leukemia was above 100 µM throughout.

With `Cc1cc(=O)cc2sc3cc(Cl)ccc3nc1-2`, the TGI was 44.6 µM with OVCAR-8 ovarian; 45.4 µM in the assay on A498 renal; above 82.5 µM in the assay on SK-OV-3 ovarian; 29.7 µM with HOP-62 NSCLC; 33.3 µM in the assay on M14 melanoma; 20.6 µM in the assay on K-562 leukemia. The values for the TGI in the assay with SF-268 CNS and with RPMI-8226 leukemia were 79.5 µM and above 100 µM, respectively.

For the compound `CC1=C(C)C(=O)c2c(cc3c4ccccc4ccn23)C1=O`, the TGI with OVCAR-8 ovarian, in the assay with SK-OV-3 ovarian, in the assay on HOP-62 NSCLC, with M14 melanoma, in the assay with K-562 leukemia and in the assay with RPMI-8226 leukemia was above 100 µM each time.

With `C=CCOC1=C2CC[C@H](O)[C@@]2(C)CCC1=O`, the TGI in the assay with OVCAR-8 ovarian, in the assay with A498 renal, in the assay on SK-OV-3 ovarian, in the assay on HOP-62 NSCLC, with M14 melanoma and in the assay on SF-268 CNS was above 100 µM throughout. In addition, the TGI in the assay with RPMI-8226 leukemia was above 100 µM.

For the compound `COC1OC(COCc2ccc(Cl)cc2)C(OCc2ccc(Cl)cc2)C1O` (stereo not drawn), the TGI came to 69.7 µM with OVCAR-8 ovarian; 65.9 µM in the assay on SK-OV-3 ovarian; 32.1 µM in the assay with HOP-62 NSCLC; 31 µM with M14 melanoma; 38.5 µM with K-562 leukemia; 35.5 µM in the assay on SF-268 CNS. The compound also registered a TGI in the assay on RPMI-8226 leukemia above 100 µM.

For `Nc1ccccc1S(=O)c1ccccc1` (stereo not drawn), the TGI in the assay on OVCAR-8 ovarian, in the assay on A498 renal, with SK-OV-3 ovarian, with HOP-62 NSCLC, in the assay with M14 melanoma and in the assay with K-562 leukemia was above 100 µM throughout. For the same compound, the TGI with SF-268 CNS and in the assay with RPMI-8226 leukemia was above 100 µM throughout.

Take `O=C(CC(=O)C(=O)CC(=O)OCc1ccccc1)OCc1ccccc1`: the TGI in the assay on OVCAR-8 ovarian, with A498 renal, in the assay on SK-OV-3 ovarian, with HOP-62 NSCLC, in the assay on M14 melanoma and in the assay with K-562 leukemia was above 100 µM throughout. Besides, the TGI in the assay on SF-268 CNS and with RPMI-8226 leukemia was above 100 µM each time.

Regarding `CC(C)CC(=O)N1CCN(C(=O)CC(C)C)c2ccccc21`, the TGI with OVCAR-8 ovarian, in the assay on A498 renal, in the assay on SK-OV-3 ovarian, in the assay on HOP-62 NSCLC, in the assay with K-562 leukemia and with SF-268 CNS was above 100 µM throughout. Besides, in the assay on RPMI-8226 leukemia, the TGI was above 100 µM.
